Experimental data taken from PubChem BioAssay (NCI).
Where “and” joins values, the source holds several entries; their conditions need not be identical. Equal values may be shown once.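 Cultured in 96-well plates, cells were exposed to test compound for 48 hours across five concentrations. GI50 = concentration required for 50% inhibition of growth. TGI is the concentration that stops growth completely.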

Experiments:
Assay in all cases: DTP human tumour cell line panel, 48 h
[1] = test system: ACHN renal
[2] = test system: DMS 273 small cell lung
[3] = test system: LXFL 529 NSCLC
[4] = test system: M14 melanoma
[5] = test system: MOLT-4 leukemia
[6] = test system: NCI-H23 lung
[7] = test system: SF-268 CNS
[8] = test system: SK-MEL-2 melanoma
[9] = test system: BT-549 breast
[10] = test system: NCI/ADR-RES ovarian

Compound | TGI [1] | TGI [2] [µM] | TGI [3] [µM] | TGI [4] | TGI [5] | TGI [6] | TGI [7] | TGI [8] | GI50 [1] [µM] | TGI [9] [µM] | GI50 [4] [µM] | GI50 [5] [µM] | TGI [10] [µM] | GI50 [7] [µM] | GI50 [8] [µM]
FC(F)(F)c1nc(-c2ccccc2Cl)[nH]c1C(F)(F)F | 2.65 µM | 3.03 | 3.73 | 4.83 µM | > 29.5 µM | 2.03 µM | > 29.5 µM | 1.4 µM | – | – | – | – | – | – | –
Cn1cc(NC(=O)c2cc(NC(=O)CCCCCCCCCCC(=O)Nc3cc(C(=O)Nc4cc(C(=O)NCCC(=N)N)n(C)c4)n(C)c3)cn2C)cc1C(=O)NCCC(=N)N | > 100 µM | > 100 | > 100 | > 100 µM | > 100 µM | > 100 µM | > 100 µM | > 100 µM | – | – | – | – | – | – | –
O=c1cc(-c2cccc(F)c2)[nH]c2cc3c(cc12)OCO3 | 75 µM and > 59.5 µM | 75 | 75 | 75 µM and 23.8 µM | 75 µM and > 16.8 µM | 2.43 µM and 2.83 µM | 75 µM and > 58.1 µM | 2.9 µM and 23.6 µM | 0.432 | > 100 | 0.286 | 0.799 | 0.0497 | 0.658 | 0.23
Cc1cc2c(cc1C)[n+](=O)c(C(=O)C/C(=N/NC(=O)c1ccccc1O)C(=O)Nc1ccccc1C(C)C)c(C)n2[O-] | > 100 µM | > 100 | > 100 | > 100 µM | 77.1 µM | > 100 µM | > 100 µM | > 100 µM | – | – | – | – | – | – | –
N#CC1(c2nc3ccccc3o2)C(=O)C(=O)N(C2C3CC4CC(C3)CC2C4)C(=O)C1=O (stereo unspecified) | > 100 µM | > 100 | > 100 | > 100 µM | > 100 µM | > 100 µM | > 100 µM | > 100 µM | – | – | – | – | – | – | –
CCOC(=O)C1=C(C)Nc2ccccc2S1 | > 100 µM | > 100 | > 100 | > 100 µM | > 100 µM | > 100 µM | > 100 µM | > 100 µM | – | – | – | – | – | – | –
CN(C)/C(=N/C(=S)Nc1ccccc1)SCc1ccccc1 | > 100 µM | > 100 | > 100 | > 100 µM | > 100 µM | > 100 µM | > 100 µM | > 100 µM | – | – | – | – | – | – | –
COC(=O)C(C#N)=C1c2ccccc2Oc2ccccc21 | > 100 µM | > 100 | 94.8 | > 100 µM | > 100 µM | > 100 µM | > 100 µM | > 100 µM | – | – | – | – | – | – | –
